Drawing on patent US9012457B2, “2-carboxamide-4-piperazinyl-benzofuran derivative” (AstraZeneca AB, priority 2010, dated 2015), this text covers Kd and Ki for two molecules.

Each structure is given as a SMILES string.

Experiment [1] has as its target T1, 5-HT1B receptor (Homo sapiens, UniProt P28222). The experiment can be described thus: saturation binding studies, 5-HT1B receptor. Particulars: read-out: Kd of radioligand (used in calculation of Ki values).
Description: Frozen membrane preparations were thawed, homogenized with an Ultra-Turrax and mixed with SPA beads (YSI coated WGA, GE Healthcare/Amersham, Buckinghamshire, UK) in assay buffer containing 50 mM Tris-Base, 4 mM MgCl2, 4 mM CaCl2 (only 5-HT1B), 1 mM EDTA, and adjusted to pH 7.4 with HCl. The beads/membrane solution, final concentration 100 pM receptors for 5-HT1A, 300 pM receptors for 5-HT1B and 0.5 mg SPA beads/well, was pre-incubated in room temperature with stirring for 30-60 min. […] Five (log interval, 10 μM to 1 nM, final concentration) or ten serial dilutions (½-log interval, 0.1 μM to 0.0032 nM, final concentration) of compounds were prepared in DMSO from 10 mM stock solutions. The binding assays were performed in 384-well plates in a final volume of 90 μL/well with the following additions: 9 μL binding buffer; 1 μL compound/DMSO/nonspecific; 20 μL radioligand; and 60 μL beads/membrane mixture. Non-specific binding was defined by using 10 μM WAY100635 for 5-HT1A and 10 μM Methiothepin for 5-HT1B. The assay plates were incubated for 4 hours where after the plates are counted in a Wallac 1450 Microbeta Trilux counter (PerkinElmer LifeScience, US) or similar. Data from the experiments were analyzed using a four parameter logistic equation as follows: Y=Bottom+(Top−Bottom)/1+10^(Log EC50-X)nH.
Experiment [2] concerns the target T2, 5-HT1A receptors (Homo sapiens, UniProt P08908).
T2 sequence (P08908 1-422): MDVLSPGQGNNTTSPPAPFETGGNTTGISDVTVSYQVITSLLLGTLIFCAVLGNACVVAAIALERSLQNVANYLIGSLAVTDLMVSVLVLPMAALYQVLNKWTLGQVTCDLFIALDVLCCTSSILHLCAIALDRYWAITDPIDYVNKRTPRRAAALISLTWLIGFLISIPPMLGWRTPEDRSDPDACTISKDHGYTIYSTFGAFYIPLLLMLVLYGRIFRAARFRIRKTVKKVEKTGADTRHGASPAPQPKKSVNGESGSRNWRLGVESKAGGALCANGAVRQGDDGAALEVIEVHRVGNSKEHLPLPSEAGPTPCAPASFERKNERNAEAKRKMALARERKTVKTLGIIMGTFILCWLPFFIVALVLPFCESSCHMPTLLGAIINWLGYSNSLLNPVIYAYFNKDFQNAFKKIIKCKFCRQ
The experiment can be described thus: 5-HT1A receptor competition binding assay (SPA, [3H]-8-OH-DPAT).
Description: (§1) These assays were be used with some modifications:
(§2) For the binding assay stably transfected chinese hamster ovary (CHO) cell lines expressing 5-HT1A receptors or 5-HT1B receptors were harvested by centrifugation at 300×g for 10 min and resuspended in 10 mM Tris-HCl, 5 mM EDTA at pH 7.4. The cells were pooled, recentrifuged and resuspended before homogenisation using a Dounce homogeniser (“type B”). Cell membranes were centrifuged at 48 000×g for 10 min and then resuspended in harvesting buffer using an Ultra-Turrax T8 (IKA Labortechnik, Germany), aliquots were stored frozen in −70° C.
(§3) Frozen membrane preparations were thawed, homogenized with an Ultra-Turrax and mixed with SPA beads (YSI coated WGA, GE Healthcare/Amersham, Buckinghamshire, UK) in assay buffer containing 50 mM Tris-Base, 4 mM MgCl2, 4 mM CaCl2 (only 5-HT1B), 1 mM EDTA, and adjusted to pH 7.4 with HCl. The beads/membrane solution, final concentration 100 pM receptors for 5-HT1A, 300 pM receptors for 5-HT1B and 0.5 mg SPA beads/well, was pre-incubated in room temperature with stirring for 30-60 min. […] The assay plates were incubated for 4 hours where after the plates are counted in a Wallac 1450 Microbeta Trilux counter (PerkinElmer LifeScience, US) or similar. Data from the experiments were analyzed using a four parameter logistic equation as follows: Y=Bottom+(Top−Bottom)/1+10^(Log EC50-X)nH.

The target of experiment [3] is T1, 5-HT1B receptor. In words: 5-HT1B receptor competition binding assay (SPA, [3H]-GR125743).
Description: as §1, §2, §3

T1 sequence (P28222 whole entry): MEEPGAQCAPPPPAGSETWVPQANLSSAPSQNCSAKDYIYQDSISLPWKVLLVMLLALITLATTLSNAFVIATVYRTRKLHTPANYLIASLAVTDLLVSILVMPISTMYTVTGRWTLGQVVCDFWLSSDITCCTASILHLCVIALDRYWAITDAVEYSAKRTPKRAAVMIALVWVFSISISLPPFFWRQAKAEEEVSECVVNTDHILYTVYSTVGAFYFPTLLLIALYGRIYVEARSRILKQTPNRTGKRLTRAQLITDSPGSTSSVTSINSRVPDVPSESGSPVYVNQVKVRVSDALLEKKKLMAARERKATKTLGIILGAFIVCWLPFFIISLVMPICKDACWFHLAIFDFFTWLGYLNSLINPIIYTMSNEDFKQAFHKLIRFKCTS

On to `COc1ccc(NC(=O)c2ccc(-c3ccncc3)c(C)c2)cc1N1CCN(C)CC1` [[^3H]-GR125743], for which the Kd in experiment [1] was 0.87 nM.

In the case of `CNC(=O)c1cc2c(N3CCN(CCc4cccc5c4CCC(=O)N5C)CC3)cccc2o1` [compound of formula (I), N-Methyl-4-[4-[2-(1-methyl-2-oxo-3,4-dihydroquinolin-5-yl)ethyl]piperazin-1-yl]benzofuran-2-carboxamide], the Ki worked out at 0.07 nM in experiment [2] and 0.65 nM in experiment [3].
